Columns and labels:
TASK1 (mouse) = biological target: T1, TASK1 (mouse) (Mus musculus, UniProt O35111); assay: Activity on the TASK-1 channel in Xenopus oocytes (two-microelectrode voltage clamp), mouse channel; type: cell-based; details: mouse TASK-1 expressed in Xenopus oocytes, voltage jumps to 40 mV, pH 7.4, room temperature; read-out: IC50 (μmol) TASK1 (mouse)
T1 construct: expressed in transfected cells; host or cells: Xenopus laevis oocytes injected with in vitro synthesized RNA
Experimental: (§1) A) Determination of the Activity on the TASK-1 Channel in Xenopus Oocytes
(§2) Mouse or human TASK-1 channels were expressed in Xenopus oocytes. For this purpose, oocytes were first isolated from Xenopus levis and defolliculated. Subsequently, TASK-1-encoding RNA synthesized in vitro was injected into these oocytes. After two days of TASK-1 protein expression, TASK-1 currents were measured on the oocytes with the two-microelectrode voltage clamp technique. In this measurement, the TASK-1 channels were generally activated with voltage jumps lasting 250 ms to 40 mV. The bath was flushed with a solution of the following composition: NaCl 96 mM, KCl 2 mM, CaCl2 1.8 mM, MgCl2 1 mM, HEPES 5 mM (titrated to pH 7.4 with NaOH). These experiments were performed at room temperature. For data acquisition and analysis, the following were used: Geneclamp amplifier (Axon Instruments, Foster City, USA) and MacLab D/A converter and software (ADinstruments, Castle Hill, Australia). The inventive substances were tested by adding them to the bath solution in different concentrations. The effects of the substances were calculated as the percentage inhibition of the TASK-1 control current which was obtained when no substance was added to the solution. The data was subsequently fitted to the Hill equation in order to determine the half-maximum inhibitory concentrations (IC50 values) for the particular substances.

human TASK-3 channel = biological target: T2, human TASK-3 channel (Homo sapiens, UniProt Q9NPC2); assay: Activity on the TASK-3 channel by patch-clamp on CHO cells; type: cell-based; details: whole cell, CHO cells expressing human TASK-3, read-out: IC50 (μmol/l) TASK3 (human)
T2 construct: expressed in transfected cells; host or cells: CHO DHFR-minus cells, clone CHO-244-8-1
T2 sequence (Q9NPC2 whole entry): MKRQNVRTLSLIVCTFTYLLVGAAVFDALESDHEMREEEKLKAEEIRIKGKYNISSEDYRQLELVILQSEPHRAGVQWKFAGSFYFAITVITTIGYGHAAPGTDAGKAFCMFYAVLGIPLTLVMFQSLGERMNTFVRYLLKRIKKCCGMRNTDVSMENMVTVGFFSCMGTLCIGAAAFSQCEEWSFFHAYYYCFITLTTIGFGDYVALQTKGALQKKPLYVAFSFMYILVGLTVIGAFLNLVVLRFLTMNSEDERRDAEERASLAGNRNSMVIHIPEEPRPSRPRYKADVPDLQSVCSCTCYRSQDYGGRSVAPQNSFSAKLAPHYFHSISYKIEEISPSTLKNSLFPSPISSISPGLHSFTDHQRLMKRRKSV
Experimental: C) Determination of the Activity on the TASK-3 Channel by Patch-Clamp Investigations
With the aid of the patch-clamp technique, the inhibition of the human TASK-3 current by the example compounds was measured on CHO cells in which the human TASK-3 channel is expressed. To produce the TASK-3 cell line, the human TASK-3 cDNA (Genbank, Accession Number AF248241) was cloned into the eukaryotic expression vector p658, which bears a DHFR (dihydrofolate reductase) resistance gene [reference: Gene 1994 (149), 341-344, 1994]. CHO (Chinese hamster ovary) DHFR-minus cells were transfected with the TASK-3 expression construct using the Fugene reagent (Roche Biochemicals) according to the manufacturer's instructions. […] Resulting cell clones were analyzed for the expression of TASK-3 with the aid of a fluorescence-based activity assay in a FlexStation (Molecular Devices) and with a membrane potention-sensitive dye (Molecular Devices FMP Dye Kit). […] TASK-3-positive cell clones were subsequently analyzed for resulting potassium currents with the patch-clamp technique. […]
To investigate the substances, the cells were introduced into a measurement chamber which is mounted on an inverted microscope. […] The concentration of the half-maximum inhibition of the current (IC50 value) was determined by fitting the curve to the mathematical Hill equation.
In this analysis, the following IC50 values were determined: […]

respiration in rabbits = assay: Action on respiration in rabbits (propofol-induced apnea); type: in vivo; details: rabbit, 10 mg/kg i.v., propofol 10 mg/kg/min, n = 13
Experimental: D) Investigation of the Action on Respiration in Rabbits
An apnea was induced in the rabbit by infusion of the narcotic propofol, 10 mg/kg/min. The vehicle used for the compound of example 1 (R-enantiomer) was DMSO/PEG (0.2 ml/1.8 ml). The time from the start of propofol infusion up to the apnea was recorded.

genioglossus muscle = assay: Electromyographic activity of the genioglossus muscle in narcotized rats; type: in vivo, rat
Experimental: (§3) E) Investigation of the Effect on the Electromyographic Activity of the Genioglossus Muscle and the Respiratory Minute Volume in Rats
(§4) The compound of example 1 (R-enantiomer) and of example 2 was investigated for electromyographic activity of the genioglossus muscle and for respiration-stimulating effect on male urethane-chloralose-narcotized, vagotomized rats with a weight of from 250 to 300 g. For this purpose, the genioglossus EMG activity was measured by means of EMG electrodes. The respiration-stimulating effect was investigated by measuring the respiratory minute volume by means of a tracheal cannula. For the investigations, the rats were administered intravenously successively with 1, 3 and 10 mg/kg of the compound of example 1 (R-enantiomer) and of example 2, with glycofurol (50%) as the vehicle, at 15 minute intervals. CO2 was used as the positive control for the stimulation of the genioglossus activity and of the respiratory minute volume.

respiration = assay: Respiratory minute volume in narcotized rats; type: in vivo, rat
Experimental: as §3, §4

rats = assay: Compatibility in rats; type: in vivo, rat; details: oral administration of 1000 mg/kg
Excerpt: F) Investigation of Compatibility in Rats

TASK1 (human) [1] = biological target: T3, TASK1 (human) (Homo sapiens, UniProt O14649); assay: Activity on the TASK-1 channel with the FLIPR technique on CHO cells; type: cell-based; design: expressed in transfected cells; host or cells: CHO cells; details: inhibition of human TASK-1 current, 10 μmol/l
T3 sequence (O14649 whole entry): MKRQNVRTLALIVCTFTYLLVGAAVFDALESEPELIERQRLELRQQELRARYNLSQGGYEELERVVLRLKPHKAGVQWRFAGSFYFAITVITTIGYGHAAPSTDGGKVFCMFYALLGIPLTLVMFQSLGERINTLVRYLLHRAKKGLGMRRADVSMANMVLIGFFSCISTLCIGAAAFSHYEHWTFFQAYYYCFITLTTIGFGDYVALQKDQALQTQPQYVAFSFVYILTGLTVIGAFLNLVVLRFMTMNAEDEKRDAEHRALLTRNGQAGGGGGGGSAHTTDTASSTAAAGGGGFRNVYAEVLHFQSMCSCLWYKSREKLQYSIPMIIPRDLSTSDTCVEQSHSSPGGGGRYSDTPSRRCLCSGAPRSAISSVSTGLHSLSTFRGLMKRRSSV
Excerpt: B) Determination of the Activity on the TASK-1 Channel with the FLIPR Technique

TASK1 (human) [2] = biological target: T3, TASK1 (human); assay: Activity on the TASK-1 channel in Xenopus oocytes (two-microelectrode voltage clamp), human channel; type: cell-based; design: expressed in transfected cells; host or cells: Xenopus laevis oocytes injected with in vitro synthesized RNA; details: human TASK-1 expressed in Xenopus oocytes, voltage jumps to 40 mV, pH 7.4, room temperature; read-out: IC50 (μmol) TASK1 (human)
Experimental: as §1, §2

T1 sequence (O35111 whole entry): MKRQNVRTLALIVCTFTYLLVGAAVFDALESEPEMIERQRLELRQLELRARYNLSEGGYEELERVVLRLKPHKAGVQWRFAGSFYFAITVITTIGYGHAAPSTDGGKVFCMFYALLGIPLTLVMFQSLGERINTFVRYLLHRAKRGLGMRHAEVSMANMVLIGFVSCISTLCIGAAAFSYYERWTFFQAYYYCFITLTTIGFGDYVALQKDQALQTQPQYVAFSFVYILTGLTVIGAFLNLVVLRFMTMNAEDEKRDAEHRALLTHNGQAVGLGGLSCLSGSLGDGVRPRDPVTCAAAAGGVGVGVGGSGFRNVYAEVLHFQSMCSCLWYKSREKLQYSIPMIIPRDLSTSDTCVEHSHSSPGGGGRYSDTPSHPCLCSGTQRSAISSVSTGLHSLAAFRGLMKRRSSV

CCCCS(=O)(=O)Nc1ccccc1C(=O)N[C@H](CC)c1ccc(OC)nc1 [Example 1 (R-enantiomer), 2-(Butyl-1-sulfonylamino)-N-[1(R)-(6-methoxypyridin-3-yl)propyl]benzamide]
IC50 (TASK1 (mouse)): 150 nM
IC50 (human TASK-3 channel): 1 µmol/L
Time from the start of propofol infusion up to the apnea (mean) (respiration in rabbits): 5.63 min
EMG activity of the genioglossus muscle (mean) (genioglossus muscle; 1 mg/kg intravenously): 4.45 arbitrary units
EMG activity of the genioglossus muscle (mean) (genioglossus muscle; 3 mg/kg intravenously): 5.59 arbitrary units
EMG activity of the genioglossus muscle (mean) (genioglossus muscle; 10 mg/kg intravenously): 7.18 arbitrary units
Effect on the electromyographic activity of the genioglossus muscle (in words) (genioglossus muscle; summary of tables 2 and 4): stimulate
Respiratory minute volume (mean) (respiration; 1 mg/kg intravenously): 246 mL/min
Respiratory minute volume (mean) (respiration; 3 mg/kg intravenously): 317 mL/min
Respiratory minute volume (mean) (respiration; 10 mg/kg intravenously): 375 mL/min
Effect on the respiratory minute volume (in words) (respiration; summary of tables 3 and 5): stimulate
Side-effects (rats): no side-effects were observed
melting point: 97 °C
inhibition at 10 µM (TASK1 (human) [1]): 81%
IC50 (TASK1 (human) [2]): 100 nM
